Measured values published in patent US6492360B1, “Phthalazine derivatives phosphodiesterase 4 inhibitors” (Zambon Group S.p.A., priority 1998, dated 2002).

Tests used:
[1] = target: T1, PDE 5 (Homo sapiens, UniProt O76074); assay: PDE 5 enzyme inhibition (SPA); type: biochemical; details: 10^−6 M; PDE 5 from human platelets; cGMP
T1 construct: The fractions containing the enzymatic activities (PDE 3 or PDE 5) were pooled; from tissue; host or cells: human platelets from platelet rich plasma of healthy volunteers
Description: (§1) a) Human Platelet Preparation
(§2) Human platelets were prepared from platelet rich plasma (PRP) obtained from healthy volunteers. The PRP was centrifuiged at 2,200 rpm for 15 minutes at 4° C. and the pellet was suspended in lysis solution (15 ml; 155 mM NH4Cl, 10 mM KHCO3 and 0.1 mM Na2EDTA, pH=7.4) and incubated for 10 minutes on ice-bath to remove the erythrocyte contamination. After centrifugation at 1,400 rpm for 10 minutes at 4° C., platelets were suspended in 10 ml of […], 5 mM KCl, 1 mM MgSO4, 10 mM glucose, 10 mM HEPES (pH 7.4) and 0.05 U/ml of hirudin, and stored at −20° C. until homogenisation. Platelets were thawed and 50 ml of 20 mM TRIS (pH=6.5) containing 5 mM β-mercapto-ethanol, 2 mM EDTA, 50 mM sodium acetate and 50 μM PMSF (homogenisation buffer) were added. The platelet suspension was then homogenised by a Polytron homogeniser (Polytron PT 1200) for 20 seconds. The homogenate was centrifuged at 14,500 rpm for 20 minutes at 4° C., and the supernatant was applied to an UNO Q12 column (Bio-Rad). The PDE 3 and PDE 5 were eluted by sodium acetate linear gradient from 0.05M to 1M using a flow rate of 4.5 ml/minutes. The fractions containing the enzymatic activities (PDE 3 or PDE 5) were pooled, dialysed against water and concentrated 10 times by ultrafiltration. The PDE 3 and PDE 5 fractions were stored at −20° C. in the presence of ethylene glycol (30% v/v) until use.
(§3) b) PDE 3 and PDE 5 Activity Assay
(§4) The enzyme activity was evaluated with a Scintillation Proximity Assay (SPA) kit (Amersham). The enzymatic reaction was performed in a final volume of 100 μl of TRIS/HCl buffer (50 mM, pH7.5), MgCl2 (8.3 mM), EGTA (1.7 mM), cAMP (for PDE 3 assay) or cGMP (for PDE 5 assay) (1 μM), [^3H]cAMP or [^3H]cGMP (10 μl ), and 10 μl of the compounds of the invention or vehicle. The reaction was started by adding the enzyme (1.0 μg) and incubated for 40 minutes at 30° C. SPA beads (50 μl) containing 18 mM zinc sulphate were added to stop the reaction and after 20 minutes at room temperature the radioacticity was measured using a scintillation counter.
(§5) The compounds were tested at 10^−6M and the results are expressed as percent of inhibition.

[2] = target: PDE 4; assay: PDE 4 enzyme inhibition (SPA); type: biochemical; details: PDE 4 purified from human PMNs; cAMP 1 μM
Description: a) Human Polymorphonuclear Leukocyte Isolation
The polymorphonuclear leukocytes (PMNs) were isolated from peripheral blood of healthy volunteers according to Boyum A. (Scand. J. Immunol., 1976, 5th suppl., 9). Briefly, the PMNs were purified by Ficoll-Paque gradient centrifugation followed by sedimentation on dextran and the erythrocyte contamination was eliminated by hypotonic lysis.
b) PDE 4 Enzyme Purification
The human PMNs were suspended in TRIS/HCl buffer (10 mM, pH 7.8) containing MgCl2 (5 mM), EGTA (4 mM), mercaptoethanol (5 mM), TRITON-X100 (1%), pepstatin A (1 μM), PMSF (100 μM) and leupeptin (1 μM), and homogenised by Polytron homogeniser. The homogenate was centrifuged at 25,000×g for 30 minutes at 4° C. and the PDE 4 enzyme was purified by ion exchange chromatography using the FPLC technique according to Schudt C. et al. (Naunyn-Schmidberg's Arch. Pharmacol., 1991, 334, 682). The supernatant was seeded on a UNO Q12 column (Bio-Rad) and the enzyme was eluted by sodium acetate linear gradient from 50 mM to 1M using a flow rate of 4.5 ml/minutes. The fractions containing enzymatic activity were pooled, dialysed against water and concentrated. The PDE 4 enzyme was stored at, −20° C. in the presence of ethylene glycol (30% v/v) until the use.
The enzyme activity was evaluated with a Scintillation Proximity Assay (SPA) kit (Amersham). The enzymatic reaction was performed in a final volume of 100 μl of TRIS/HCl buffer (50 mM, pH 7.5), MgCl2 (8.3 mM), EGTA (1.7 mM), cAMP (1 μM) and [^3H]cAMP (˜100.000 dpm) as tracer. The compounds of the invention, the reference ones or the vehicle were added at different concentrations. As reference compounds 6,7-dimethoxy-4-pyridin-4-yl-methyl)2H-phthalazin-1-one (reference 1) and 6,7-dimethoxy-4-(piperidin-4-yl-methyl)2H-phthalazin-1-one (reference 2) embraced by the general formula of the patent application EP-0 722 936 (in the name of Eisai) were used. The reaction was started by adding 1.5 μg protein and incubated for 40 minutes at 30° C. SPA beads (50 μl) containing 18 mM zinc sulphate were added to stop the reaction and after 20 minutes at room temperature the radioactivity was measured using a scintillation counter.
The IC50 value refers to the nanomolar concentration of the compound required to inhibit cyclic nucleotide hydrolysis by 50%, and it was calculated by non-linear regression analysis.

[3] = system: TNFα release from human monocytes; assay: TNFα release inhibition in LPS-stimulated monocytes; type: cell-based; details: Monocyte, LPS 1 ng/ml, 16 hours, ELISA
Description: a) Human Monocyte Isolation
The monocytes were isolated from peripheral blood of healthy volunteers according to the procedure of Schreek L. et al. (J. Natl. Cancer Inst., 1964, 32, 507). The monocyte and lymphocyte population was isolated by Ficoll gradient centrifugation, and the cells diluted at a density of 2.5×10^6 cells/ml in RPMI1640 incubation medium containing 1% heat-inactivated foetal calf serum, penicillin (100 U/ml) and streptomycin (100 μg/ml) were plated in 24-wells plates (1 ml/well) and left to adhere for 1 hour at 37° C. with 5% CO2. Non-adherent lymphocytes were removed by aspiration and the monocytes adhered to the plate were used in the next step.
The TNFα release from human monocytes was measured according to the method of Barnette M. et al. (Biochemical Pharmacology, 1996, 51, 949). The monocytes were incubated for 1 hour with 1 ml of RPMI1640 incubation medium (1% beat-inactivated foetal calf serum, 100 U/ml penicillin and 100 μg/ml streptomyc in) containing different concentrations of the products according to the present invention or the vehicle for the controls. The TNFα release from monocytes was induced by adding 1 ng/ml of LPS (lipopolysaccharide from E. Coli) and after 16 hours of incubation at 37° C., 5% CO2, the incubation medium was removed, centrifuged and the supernatant stored at −80° C. until TNFα assay by ELISA kit (Amersham). The results are expressed as IC50 following the same calculation explained in example 147.

[4] = target: T2, PDE 3 (Homo sapiens, UniProt Q14432); assay: PDE 3 enzyme inhibition (SPA); type: biochemical; details: 10^−6 M; PDE 3 from human platelets; cAMP
T2 construct: The fractions containing the enzymatic activities (PDE 3 or PDE 5) were pooled; from tissue; host or cells: human platelets from platelet rich plasma of healthy volunteers
T2 sequence (Q14432 whole entry): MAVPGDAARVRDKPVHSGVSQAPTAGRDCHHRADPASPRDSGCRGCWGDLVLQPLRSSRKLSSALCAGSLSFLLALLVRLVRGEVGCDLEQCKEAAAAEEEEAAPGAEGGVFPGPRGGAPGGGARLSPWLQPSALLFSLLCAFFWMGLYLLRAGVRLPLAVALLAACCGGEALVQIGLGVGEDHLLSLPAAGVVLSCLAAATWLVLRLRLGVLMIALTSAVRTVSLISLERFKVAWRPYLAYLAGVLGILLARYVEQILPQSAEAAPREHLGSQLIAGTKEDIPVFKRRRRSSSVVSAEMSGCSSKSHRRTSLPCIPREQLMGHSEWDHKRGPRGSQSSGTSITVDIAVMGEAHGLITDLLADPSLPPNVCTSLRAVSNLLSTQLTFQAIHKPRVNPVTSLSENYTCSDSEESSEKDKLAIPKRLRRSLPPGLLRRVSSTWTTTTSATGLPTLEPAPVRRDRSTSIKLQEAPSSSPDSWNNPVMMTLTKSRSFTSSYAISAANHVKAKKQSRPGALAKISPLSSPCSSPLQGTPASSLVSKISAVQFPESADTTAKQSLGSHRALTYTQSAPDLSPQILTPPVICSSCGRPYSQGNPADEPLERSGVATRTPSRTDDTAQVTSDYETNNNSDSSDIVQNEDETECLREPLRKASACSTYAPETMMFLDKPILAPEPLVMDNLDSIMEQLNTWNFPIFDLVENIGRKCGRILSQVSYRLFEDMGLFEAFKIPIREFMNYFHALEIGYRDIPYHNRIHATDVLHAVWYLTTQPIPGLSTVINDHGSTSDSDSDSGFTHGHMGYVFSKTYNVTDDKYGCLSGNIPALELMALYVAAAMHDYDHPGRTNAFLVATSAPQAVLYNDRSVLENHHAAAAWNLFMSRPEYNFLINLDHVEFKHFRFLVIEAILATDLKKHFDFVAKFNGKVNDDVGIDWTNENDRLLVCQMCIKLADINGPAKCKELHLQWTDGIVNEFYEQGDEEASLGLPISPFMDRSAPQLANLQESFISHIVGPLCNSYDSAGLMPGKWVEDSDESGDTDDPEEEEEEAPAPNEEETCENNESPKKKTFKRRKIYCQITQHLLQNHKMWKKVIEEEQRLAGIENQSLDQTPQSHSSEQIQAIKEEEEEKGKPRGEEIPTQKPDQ
Description: as §1, §2, §3, §4, §5

Row | inhibition at 1 µM [1] | IC50 [2] | IC50 [3] | inhibition at 1 µM [4] | SMILES
1 | 1% | 0.132 ± 0.03 µM | 0.062 ± 0.017 µM | -2% | COc1ccc2c(Cc3c(Cl)cncc3Cl)nnc(N3CCOCC3)c2c1 [Compound 38, 1(3,5-Dichloro-pyridin-4-ylmethyl)-6-methoxy-4-morpholin-4-yl-phthalazine]
2 | 21% | 0.037 ± 0.006 µM | 0.046 ± 0.015 µM | 7% | COc1ccc2c(Cc3c(Cl)cncc3Cl)nnc(-c3ccccc3)c2c1 [Compound 5, 1-(3,5-Dichloro-pyridin-4-ylmethyl)-6-methoxy-4-phenyl-phthalazine]
3 | 10% | – | 0.0091 ± 0.0029 µM | -10% | COc1ccc2c(Cc3c(Cl)cncc3Cl)nnc(N3CCCC3)c2c1 [Compound 49, 1-(3,5-Dichloropyridin-4-ylmethyl)-6-methoxy-4-pyrrolidin-1-yl-phthalazine]
4 | 1% | 0.241 ± 0.073 µM | 0.073 ± 0.021 µM | -4% | COc1ccc2c(Cc3c(Cl)cncc3Cl)nnc(-n3cncn3)c2c1 [Compound 29, 1-(3,5-Dichloro-pyridin-4-ylmethyl)-6-methoxy-4-[1,2,4]triazol-1-yl-phthalazine]
5 | 35% | 0.051 ± 0.007 µM | 0.048 ± 0.014 µM | 12% | COc1ccc2c(c1)CN(C(C)=O)N=C2Cc1c(Cl)cncc1Cl [Compound 8, 1-[4-(3,5-Dichloro-pyridin-4-ylmethyl)-7-methoxy-1H-phthalazin-2-yl]-ethanone]
6 | 14% | 0.364 ± 0.067 µM | 0.26 ± 0.044 µM | -9% | COc1ccc2c(Cc3c(Cl)cncc3Cl)nnc(CN3CCOCC3)c2c1 [Compound 56, 1-(3,5-Dichloro-pyridin-4-ylmethyl)-6-methoxy-4-morpholin-4-ylmethyl-phthalazine]
